Experiment [1] concerns the target T1, human GSDMD WT-EGFP (Homo sapiens, UniProt P57764).
T1 construct: GSDMD WT fused to EGFP, transiently expressed in HEK293T cells, cell lysate (MST) or cells (CETSA)
T1 sequence (P57764 1-484): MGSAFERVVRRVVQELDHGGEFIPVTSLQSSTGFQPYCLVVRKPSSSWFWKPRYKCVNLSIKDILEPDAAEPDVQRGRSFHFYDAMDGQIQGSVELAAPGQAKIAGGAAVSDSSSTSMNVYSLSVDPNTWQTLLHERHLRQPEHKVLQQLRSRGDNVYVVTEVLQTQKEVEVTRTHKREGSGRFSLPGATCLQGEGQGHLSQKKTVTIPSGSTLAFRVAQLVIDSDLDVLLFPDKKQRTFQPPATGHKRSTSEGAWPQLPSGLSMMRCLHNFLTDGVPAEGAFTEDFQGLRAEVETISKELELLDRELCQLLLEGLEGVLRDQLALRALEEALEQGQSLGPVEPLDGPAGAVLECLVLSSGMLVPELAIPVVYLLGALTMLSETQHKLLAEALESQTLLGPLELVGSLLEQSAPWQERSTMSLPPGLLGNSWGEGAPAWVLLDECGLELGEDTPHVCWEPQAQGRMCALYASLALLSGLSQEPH
Put plainly: cellular thermal shift assay (CETSA), western blot. Format: cell-based. Conditions: transfected HEK293T cells, 2 h.

Experiment [2] has as its target T1, human GSDMD WT-EGFP. The experiment can be described thus: microscale thermophoresis in cell lysate. In kind it is biochemical. Background: In MST a laser heats a spot of the sample, and binding alters the fluorescence response.
For another experiment, the target named is T2, mouse GSDMD WT-EGFP (Mus musculus, UniProt Q9D8T2).
T2 construct: GSDMD WT fused to EGFP, transiently expressed in AML12 cells, cell lysate (MST); CETSA in AML12 cells with no transfection stated
T2 sequence (Q9D8T2 1-487): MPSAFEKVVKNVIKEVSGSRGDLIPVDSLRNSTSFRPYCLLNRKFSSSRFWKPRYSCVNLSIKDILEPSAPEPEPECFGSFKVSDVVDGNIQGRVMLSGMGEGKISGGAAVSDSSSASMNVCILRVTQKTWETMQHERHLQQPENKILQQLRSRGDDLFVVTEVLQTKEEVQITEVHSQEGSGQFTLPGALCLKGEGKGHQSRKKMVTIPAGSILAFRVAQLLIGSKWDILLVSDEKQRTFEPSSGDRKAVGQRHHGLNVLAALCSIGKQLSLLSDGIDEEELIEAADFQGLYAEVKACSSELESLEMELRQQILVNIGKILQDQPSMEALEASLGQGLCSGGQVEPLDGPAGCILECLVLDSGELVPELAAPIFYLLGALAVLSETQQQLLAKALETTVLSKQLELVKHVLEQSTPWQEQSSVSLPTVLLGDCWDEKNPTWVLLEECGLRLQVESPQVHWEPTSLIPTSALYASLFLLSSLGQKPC
Put plainly: microscale thermophoresis in cell lysate. In kind it is biochemical.

The values that follow come from paper PMC8841757, “Direct Inhibition of GSDMD by PEITC Reduces Hepatocyte Pyroptosis and Alleviates Acute Liver Injury in Mice” (Frontiers in Immunology, 2022).

The Kd is the constant that tells how readily two partners part at equilibrium. Read a high Kd as weaker binding.

On to `COc1nccnc1NS(=O)(=O)c1ccc(NC(=O)/C=C/c2ccc([N+](=O)[O-])s2)cc1` [NSA], for which the “thermal stability (CETSA)” value at human GSDMD WT-EGFP [1] (3 μM NSA) is “NSA enhanced the thermal stability of human WT-GSDMD”. Moreover, binding at human GSDMD WT-EGFP [2] was put at a Kd of 11200 nM.
On to `S=C=NCCc1ccccc1` [PEITC], for which the “thermal stability (CETSA)” value on human GSDMD WT-EGFP [1] (3 μM PEITC) is reported as “PEITC reduced the thermal stability of human WT-GSDMD”. The equilibrium dissociation constant (Kd) on mouse GSDMD WT-EGFP turned out to be 308 nM; at human GSDMD WT-EGFP [2], 230 nM.
